Laboratory results taken from ChEMBL document CHEMBL4834450, “Design, synthesis and antimicrobial activity of novel 2-aminothiophene containing cyclic and heterocyclic moieties” (2021).

Legend:
Type in all cases: functional
Conditions in all cases: read-out: DIZ
Streptococcus pneumoniae = assay: Antibacterial activity against Streptococcus pneumoniae ATCC49619 at 5 ug/ml
Bacillus subtilis = assay: Antibacterial activity against Bacillis subtilis BS-GA28 at 5 ug/ml
Pseudomonas aeruginosa = assay: Antibacterial activity against Pseudomonas aeruginosa MTCC441 at 5 ug/ml
Escherichia coli = assay: Antibacterial activity against Escherichia coli MTCC442 at 5 ug/ml
Aspergillus fumigatus = assay: Antifungal activity against Aspergillus fumigatus HIC6094 at 5 ug/ml
[1] = system: Syncephalastrum racemosum; assay: Antifungal activity against Syncephalastrum racemosum RCMB05922 at 5 ug/ml
Geotrichum candidum = assay: Antifungal activity against Geotrichum candidum RCMB05097 at 5 ug/ml
Candida albicans = assay: Antifungal activity against Candida albicans MTCC227 at 5 ug/ml

Compound	zone of inhibition at 5 µg/mL (Streptococcus pneumoniae) [mm]	zone of inhibition at 5 µg/mL (Bacillus subtilis) [mm]	zone of inhibition at 5 µg/mL (Pseudomonas aeruginosa) [mm]	zone of inhibition at 5 µg/mL (Escherichia coli) [mm]	zone of inhibition at 5 µg/mL (Aspergillus fumigatus) [mm]	zone of inhibition at 5 µg/mL [1] [mm]	zone of inhibition at 5 µg/mL (Geotrichum candidum) [mm]	zone of inhibition at 5 µg/mL (Candida albicans) [mm]
CCOC(=O)c1ccc(-c2sc(Nc3ccccc3)c(C(=O)OCC)c2-c2ccccc2)nc1C	18.2	18.9	10.8	11.1	26.3	20.9	12.6	11.2
CCOC(=O)c1c(Nc2ccccc2)sc(C(=O)/C=C/c2ccc(Cl)cc2)c1-c1ccccc1	19.5	29.8	12.3	17.6	22.3	16.5	25.8	12.3
CCOC(=O)c1c(Nc2ccccc2)sc(-c2ccnc(O)n2)c1-c1ccccc1	16.3	19.1	11.4	10.7	18.2	13.7	19.1	18.2
CCOC(=O)c1c(Nc2ccccc2)sc(-c2ccnc(S)n2)c1-c1ccccc1	12.3	12.7	9.8	11.3	15.7	16.6	12.6	12.7
CCOC(=O)c1c(Nc2ccccc2)sc(C(=O)/C=C/c2ccc(O)cc2)c1-c1ccccc1	26.7	21.4	18.7	19.5	15.7	11.2	17.3	13.3
CCOC(=O)c1c(Nc2ccccc2)sc(C(=O)/C=C/c2ccc([N+](=O)[O-])cc2[N+](=O)[O-])c1-c1ccccc1	16.5	18.9	11.3	9.9	18.9	19.6	14.8	13.4
CCOC(=O)c1c(Nc2ccccc2)sc(C(=O)/C=C/c2cccc(N(C)C)c2)c1-c1ccccc1	16.3	19.6	12.5	14.8	24.3	24.5	25.8	14.3
CCOC(=O)c1c(Nc2ccccc2)sc(C(=O)c2cn(-c3ccc(Cl)cc3)nc2C(C)=O)c1-c1ccccc1	14.6	14.3	10.2	8.8	16.3	14.8	15.3	14.3
CC1(C)S[C@@H]2[C@H](NC(=O)[C@H](N)c3ccccc3)C(=O)N2[C@H]1C(=O)O [AMPICILLIN]	23.8	32.4	–	–	–	–	–	–
CCOC(=O)c1c(Nc2ccccc2)sc(-c2ccn(-c3ccc(Cl)cc3)n2)c1-c1ccccc1	18.2	18.9	10.8	11.1	26.3	20.9	12.6	11.2
CCOC(=O)c1c(Nc2ccccc2)sc(-c2ccnc(N)n2)c1-c1ccccc1	16.3	19.1	11.4	10.7	18.2	13.7	19.1	18.2
CCOC(=O)c1c(Nc2ccccc2)sc(C(=O)/C=C/c2ccc(OC)cc2)c1-c1ccccc1	18.9	17.9	11.4	10.2	23.4	16.1	10.8	11.9
CCOC(=O)c1c(Nc2ccccc2)sc(C(=O)c2cn(-c3ccc(C)cc3)nc2C(C)=O)c1-c1ccccc1	12.3	12.7	9.8	11.3	15.7	16.6	12.6	12.7
CCOC(=O)c1c(Nc2ccccc2)sc(-c2ccn(-c3ccccc3)n2)c1-c1ccccc1	12.3	12.7	11.6	10.9	15.9	18.9	19.1	15.8
C[C@@H]1[C@H](O)[C@@H](C)/C=C/C=C/C=C/C=C/C=C/C=C/C=C/[C@H](O[C@@H]2O[C@H](C)[C@@H](O)[C@H](N)[C@@H]2O)C[C@@H]2O[C@](O)(C[C@@H](O)C[C@@H](O)[C@H](O)CC[C@@H](O)C[C@@H](O)CC(=O)O[C@H]1C)C[C@H](O)[C@H]2C(=O)O [AMPHOTERICIN B]	–	–	–	–	23.7	19.7	28.7	25.4
CCOC(=O)c1c(Nc2ccccc2)sc(C(=O)/C=C\Nc2ccc([N+](=O)[O-])cc2)c1-c1ccccc1	19.5	29.8	12.3	18.8	12.6	16.5	25.8	10.9
CCOC(=O)c1c(Nc2ccccc2)sc(C(=O)/C=C/c2ccc(Cl)c(Cl)c2)c1-c1ccccc1	11.3	10.7	9.7	8.9	17.7	15.4	12.9	13.2
